According to US20030125311A1, “Compounds capable of binding with the cytoskeleton” (priority 2002, published 2003):
Where a name gives a salt, the structure may show the parent alone.

Tests used:
Cytosol (Rat) = test: Index of competition with pregnenolone, cytosol (rat); format: binding; conditions: Pregnenolone = 100%
Experimental: (§1) In trials of competition between pregnenolone and different steroids for the binding studied, 0.2 ml of cytosol is incubated with 100 nM of PREG [^3H] and a 1-, 10-, 100-, and 1,000-fold excess of non-radioactive steroid.

MT (Beef) = test: Index of competition with pregnenolone, MT (beef); format: binding; conditions: Pregnenolone = 100%
Experimental: as §1

Cytosol (piglet) = test: Index of competition with pregnenolone, cytosol (piglet); format: binding; conditions: Pregnenolone = 100%; cell marked piglet
Experimental: as §1

[1] = system: rat brain cytosol binding sites of pregnenolone; test: Competition trials for PREG [3H] binding in brain cytosol; set-up: key to R.C.R. 50 (relative competition index): IC50(PREG)/IC50(competitor) ×100; PREG = 100; conditions: for R.C.R. 50 (relative competition index): PREG = 100, 50% reduction of specific binding of 100 nM PREG [3H], mean±standard error, n=3
Experimental: as §1
To study the specificity of the binding of PREG [^3H], different steroids were used.
(§2) The relative competition index was determined as ratios of the concentrations of the competitor (in the […]) versus PREG causing a reduction of 50% of the specific binding of PREG [^3H]×100 (mean±standard error, n=3).

MAP2-tubulin copolymers = MAP2-tubulin copolymers (Bos taurus, UniProt A0A3Q1NAK9); test: Competition for PREG [3H] binding to MAP2-tubulin copolymers (RCR); set-up: species or system calf; conditions: for RCR: MAP2-tubulin copolymers, PREG = 100
Experimental: as §1, §2
Purified calf brain tubulin (90 μg/ml), MAP2 (45 μg/ml) or tau protein (25 μg/ml) is incubated with 100 nM of PREG [^3H], with or without a 1,000-fold excess of non-radioactive PREG.

[2] = molecular target: T1, microtubules reconstituted with purified tubulin and MAP2 (Bos taurus, UniProt A0A3Q1NAK9); test: Kinetics of assembling of microtubules (turbidity at 345 nm); format: biochemical, calf; conditions: for effect on assembling of microtubules (absorbance at 345 nm): 500 nM steroid, 37° C., 15 min
T1 construct: from tissue; host or cells: calf brain
Experimental: This assembling is measured by monitoring the increases of turbidity with a UVICON® spectrophotometer (Kontron Instruments, Montigny-le-Bretonneux, France)
The microtubules are reconstituted in vitro with purified tubulin (1 mg/ml) and MAP2 (0.05 mg/ml) in buffer A.
The increase of absorbance is measured at 345 nm, at 37° C. and recorded every 30 sec. for 15 min.
The assembling of microtubules is measured either in the absence of steroids (-⋄-); or in the presence of 500 nM of steroid: PREG (- -), progesterone (-X-), estradiol (-V-); or in the presence, at the same time, of PREG and progesterone (-∘-) or of PREG and estradiol (-Δ-) each at a concentration of 500 nM.

MAP-2c + Tubuline = molecular target: T2, MAP-2c + Tubuline (Homo sapiens, UniProt P11137); test: Index of competition with pregnenolone, MAP-2c + tubulin; format: binding; conditions: Pregnenolone = 100%
T2 sequence (P11137 1-471 isoform P11137-2): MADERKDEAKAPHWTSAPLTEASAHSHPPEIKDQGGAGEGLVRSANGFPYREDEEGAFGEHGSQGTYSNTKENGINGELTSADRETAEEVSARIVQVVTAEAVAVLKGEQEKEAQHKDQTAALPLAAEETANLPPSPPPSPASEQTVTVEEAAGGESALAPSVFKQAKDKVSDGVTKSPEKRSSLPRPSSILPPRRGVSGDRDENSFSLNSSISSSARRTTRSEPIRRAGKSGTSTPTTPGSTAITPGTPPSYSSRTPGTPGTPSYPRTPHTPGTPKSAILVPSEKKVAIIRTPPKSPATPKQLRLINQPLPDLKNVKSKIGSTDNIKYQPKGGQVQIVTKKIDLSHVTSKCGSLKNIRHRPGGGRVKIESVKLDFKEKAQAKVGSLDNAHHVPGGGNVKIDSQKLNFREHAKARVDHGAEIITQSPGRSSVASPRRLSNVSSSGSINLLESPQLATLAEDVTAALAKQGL
Experimental: as §1

fetal microtubules = fetal microtubules (Rattus norvegicus, UniProt P15146); test: Competition for PREG [3H] binding to fetal microtubules (RCR); conditions: PREG = 100
Experimental: as §1
The microtubules are prepared starting from calf brain or adult or fetal rat brain according to an assembly/disassembly method, as a function of the temperature, in vitro (12).
as §2
The binding of PREG [^3H] to microtubules prepared by polymerization/depolymerization cycles was determined.

[3] = system: binding sites of PREG [3H] in brain cytosol; test: Effects of hydrolytic enzymes on the binding of PREG [3H] in cytosol; set-up: species or system rat
Experimental: Proteinase K (Merck, Darmstadt, Germany) and Pronase® are dissolved at 1 mg/ml in TNM buffer containing 10 mM of Tris, 0.1M of NaCl, 3 mM of MgCl2 (pH 7.4). Deoxyribonuclease I and ribonuclease A are products of Sigma-Aldrich and are respectively adjusted to 100 IU/ml and 5 IU/ml. Phospholipase A2 (Roche Molecular Biochemicals) is diluted to 20 IU/ml in TNM.
1 ml of brain cytosol is incubated with 0.2 ml of an enzyme solution at 37° C. for 30 min. The binding activity is studied of samples (0.2 ml) which had undergone the enzyme treatment or control samples diluted with buffer only.
To study the effects of hydrolytic enzymes on the binding of PREG [^3H], samples of 1 ml of cytosol incubated with 0.2 ml of an enzyme solution at 37° C. for 30 min were used. The results obtained, expressed as % of the control incubation (cytosol diluted in a buffer) are reported in Table 1 (mean±standard error, n=3).

Chain of MAP2-tubulin copolymers (A0A3Q1NAK9 1-1867): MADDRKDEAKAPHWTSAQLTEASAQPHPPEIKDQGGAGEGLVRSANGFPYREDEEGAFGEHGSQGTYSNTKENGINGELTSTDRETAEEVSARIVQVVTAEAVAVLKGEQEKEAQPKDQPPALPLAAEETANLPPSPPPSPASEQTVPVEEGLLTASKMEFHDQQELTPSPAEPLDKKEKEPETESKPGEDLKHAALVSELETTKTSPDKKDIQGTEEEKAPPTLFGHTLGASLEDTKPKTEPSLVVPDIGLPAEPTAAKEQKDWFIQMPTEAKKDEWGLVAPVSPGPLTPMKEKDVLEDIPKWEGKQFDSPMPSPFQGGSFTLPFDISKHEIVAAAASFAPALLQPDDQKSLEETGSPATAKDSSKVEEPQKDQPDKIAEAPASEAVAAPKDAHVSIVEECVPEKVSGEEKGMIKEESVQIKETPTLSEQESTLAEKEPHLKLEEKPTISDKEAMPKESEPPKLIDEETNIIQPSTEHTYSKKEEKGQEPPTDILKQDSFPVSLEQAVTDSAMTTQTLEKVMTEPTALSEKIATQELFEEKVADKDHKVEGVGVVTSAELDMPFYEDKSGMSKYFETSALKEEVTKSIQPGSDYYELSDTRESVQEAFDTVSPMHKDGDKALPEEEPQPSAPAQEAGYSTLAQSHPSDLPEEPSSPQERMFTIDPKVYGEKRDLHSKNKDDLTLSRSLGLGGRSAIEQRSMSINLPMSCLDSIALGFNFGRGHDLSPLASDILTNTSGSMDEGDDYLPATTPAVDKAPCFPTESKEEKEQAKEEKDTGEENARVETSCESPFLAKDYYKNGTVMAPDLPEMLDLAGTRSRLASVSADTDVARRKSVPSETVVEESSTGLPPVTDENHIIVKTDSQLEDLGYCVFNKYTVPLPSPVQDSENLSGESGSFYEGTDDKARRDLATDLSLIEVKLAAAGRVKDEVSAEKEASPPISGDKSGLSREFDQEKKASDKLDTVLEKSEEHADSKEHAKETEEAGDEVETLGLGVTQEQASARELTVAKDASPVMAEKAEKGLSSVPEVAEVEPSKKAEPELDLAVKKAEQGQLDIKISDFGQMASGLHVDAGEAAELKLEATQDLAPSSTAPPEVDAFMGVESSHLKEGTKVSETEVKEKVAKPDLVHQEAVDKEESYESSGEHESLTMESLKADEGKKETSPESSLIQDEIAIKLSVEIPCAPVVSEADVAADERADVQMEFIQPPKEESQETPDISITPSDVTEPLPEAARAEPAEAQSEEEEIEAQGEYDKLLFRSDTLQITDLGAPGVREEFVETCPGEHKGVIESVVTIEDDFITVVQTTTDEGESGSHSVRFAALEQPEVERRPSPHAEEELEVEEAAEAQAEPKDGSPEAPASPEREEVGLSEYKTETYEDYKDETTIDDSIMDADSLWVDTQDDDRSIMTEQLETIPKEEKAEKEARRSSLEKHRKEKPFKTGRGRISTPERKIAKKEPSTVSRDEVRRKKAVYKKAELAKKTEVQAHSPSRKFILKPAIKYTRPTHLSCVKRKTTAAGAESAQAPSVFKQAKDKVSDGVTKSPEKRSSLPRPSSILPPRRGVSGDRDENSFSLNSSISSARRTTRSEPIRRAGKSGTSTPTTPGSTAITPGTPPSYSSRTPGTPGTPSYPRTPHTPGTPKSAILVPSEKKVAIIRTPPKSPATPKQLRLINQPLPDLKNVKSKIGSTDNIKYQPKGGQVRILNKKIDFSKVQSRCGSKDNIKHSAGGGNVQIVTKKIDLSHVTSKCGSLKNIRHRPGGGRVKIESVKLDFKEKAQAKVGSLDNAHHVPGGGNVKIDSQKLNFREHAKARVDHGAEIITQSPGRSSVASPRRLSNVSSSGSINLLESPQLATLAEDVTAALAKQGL
T1 sequence (A0A3Q1NAK9 1-1867): as above
Chain of fetal microtubules (P15146 whole entry): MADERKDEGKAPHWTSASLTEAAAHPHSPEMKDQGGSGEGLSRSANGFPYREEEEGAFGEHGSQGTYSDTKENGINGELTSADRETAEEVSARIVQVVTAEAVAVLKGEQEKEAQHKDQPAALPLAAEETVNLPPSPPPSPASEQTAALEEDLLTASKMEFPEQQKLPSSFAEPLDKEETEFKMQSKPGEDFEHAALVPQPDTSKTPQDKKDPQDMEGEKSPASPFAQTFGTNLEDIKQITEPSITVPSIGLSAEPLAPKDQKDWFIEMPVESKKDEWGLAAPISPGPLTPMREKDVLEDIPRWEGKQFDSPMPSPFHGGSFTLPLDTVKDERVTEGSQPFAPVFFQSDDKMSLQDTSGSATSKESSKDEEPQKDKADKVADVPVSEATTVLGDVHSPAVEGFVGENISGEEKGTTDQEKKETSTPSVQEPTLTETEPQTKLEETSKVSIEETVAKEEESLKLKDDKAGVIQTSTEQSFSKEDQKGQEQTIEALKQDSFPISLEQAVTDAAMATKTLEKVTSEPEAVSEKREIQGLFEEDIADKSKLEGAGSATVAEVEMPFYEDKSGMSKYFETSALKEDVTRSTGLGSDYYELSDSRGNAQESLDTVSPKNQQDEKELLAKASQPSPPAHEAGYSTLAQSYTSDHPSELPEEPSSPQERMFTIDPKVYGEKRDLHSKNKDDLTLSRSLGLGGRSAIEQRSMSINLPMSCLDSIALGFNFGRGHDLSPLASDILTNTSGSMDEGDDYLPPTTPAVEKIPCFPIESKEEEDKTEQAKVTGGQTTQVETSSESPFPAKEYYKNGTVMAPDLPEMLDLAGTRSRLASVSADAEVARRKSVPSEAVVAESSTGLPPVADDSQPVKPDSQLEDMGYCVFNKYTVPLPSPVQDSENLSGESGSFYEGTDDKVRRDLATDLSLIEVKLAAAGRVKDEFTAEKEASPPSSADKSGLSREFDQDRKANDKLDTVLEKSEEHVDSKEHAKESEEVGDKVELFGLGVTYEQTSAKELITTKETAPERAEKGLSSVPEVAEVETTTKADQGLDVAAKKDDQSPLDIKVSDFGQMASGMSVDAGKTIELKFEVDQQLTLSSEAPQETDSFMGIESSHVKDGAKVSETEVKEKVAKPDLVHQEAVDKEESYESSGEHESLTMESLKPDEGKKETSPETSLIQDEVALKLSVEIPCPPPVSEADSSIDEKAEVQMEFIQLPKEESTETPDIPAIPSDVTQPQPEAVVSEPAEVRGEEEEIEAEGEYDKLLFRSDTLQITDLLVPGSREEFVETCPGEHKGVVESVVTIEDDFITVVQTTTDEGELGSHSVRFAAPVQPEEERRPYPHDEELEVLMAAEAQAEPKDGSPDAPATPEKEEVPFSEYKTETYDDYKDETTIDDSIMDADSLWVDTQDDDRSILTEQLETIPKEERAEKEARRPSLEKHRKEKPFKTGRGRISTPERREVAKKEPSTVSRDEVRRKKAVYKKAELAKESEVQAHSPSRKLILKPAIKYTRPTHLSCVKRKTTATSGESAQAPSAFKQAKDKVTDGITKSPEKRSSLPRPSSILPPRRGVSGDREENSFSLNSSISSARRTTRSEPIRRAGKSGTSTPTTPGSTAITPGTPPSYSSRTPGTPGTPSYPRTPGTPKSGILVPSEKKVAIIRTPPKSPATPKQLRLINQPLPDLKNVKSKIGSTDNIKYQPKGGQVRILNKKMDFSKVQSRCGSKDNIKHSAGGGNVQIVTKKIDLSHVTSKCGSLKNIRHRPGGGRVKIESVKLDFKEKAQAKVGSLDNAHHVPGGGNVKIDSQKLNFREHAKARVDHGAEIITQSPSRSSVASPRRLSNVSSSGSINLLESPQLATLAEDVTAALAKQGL

In the case of `CC(=O)C1CC=C2C3CC=C4CC(O)CCC4(C)C3CCC21C` (stereo not drawn) [3β-OH-5, 14 Preqnadiene-20-one], the “Index of Competition, Cytosol (Rat)” value (Cytosol (Rat)) was 102% and the “Index of Competition, MT (Beef)” value (MT (Beef)) was 95%.
In the case of `CC(=O)OCC(=O)[C@H]1CC[C@H]2[C@@H]3CC=C4C[C@@H](O)CC[C@]4(C)[C@H]3CC[C@]12C` [3β-OH-Pregna-5-ene-20-one-21-acetoxy], the “Index of Competition, Cytosol (piglet)” value (Cytosol (piglet)) was 80 (piglet) % and the “Index of Competition, MT (Beef)” value (MT (Beef)) was 107%.
For `CC(=O)[C@H]1CC[C@H]2[C@@H]3CC[C@H]4C[C@@H](O)CC[C@]4(C)[C@H]3CC[C@]12C` [3β-hydroxy-5α-pregnane 20-one, 3β-hydroxy-5α-pregnane-20-one], the “competition for the binding of PREG [3H] (in words)” value (from here on “competition for the binding of PREG”) [1] was “effective competitor”, the “times less active than PREG as competitor” value [1] was 5 times and the “R.C.R. 50 (relative competition index)” value [1] was 18.4 ± 4.0.
With `C[C@H](O)C1CCC2C3CCC4CC(O)CCC4(C)C3CCC21C` (stereo partly drawn) [5a-Pregnama 3β, 20a-diol] the “Index of Competition, Cytosol (Rat)” value (Cytosol (Rat)) was 100% and the “Index of Competition, MT (Beef)” value (MT (Beef)) was 96%.
For `CC(=O)[C@@]1(O)CC[C@H]2[C@@H]3CC=C4C[C@@H](O)CC[C@]4(C)[C@H]3CC[C@@]21C` [17α-hydroxy-pregnenolone], the “R.C.R. 50 (relative competition index)” value [1] was 0.85.
With `CC(=O)[C@@]1(O)CC[C@H]2[C@@H]3CCC4=CC(=O)CC[C@]4(C)[C@H]3CC[C@@]21C` [17α-hydroxy-progesterone] the “R.C.R. 50 (relative competition index)” value [1] was 0.79.
With `CC(C)CCC[C@@H](C)[C@H]1CC[C@H]2[C@@H]3CC=C4C[C@@H](O)CC[C@]4(C)[C@H]3CC[C@]12C` [Cholesterol] the “R.C.R. 50 (relative competition index)” value [1] was 0.02.
`C[C@]12CC[C@H](O)CC1=CC[C@@H]1[C@@H]2CC[C@]2(C)C(=O)CC[C@@H]12` [Dehydroepiandrosterone] was tested, and the RCR (MAP2-tubulin copolymers) was 2.3.
With `C[C@]12CC[C@@H]3c4ccc(O)cc4CC[C@H]3[C@@H]1CC[C@@H]2O` [Estradiol] the “effect on assembling of microtubules (absorbance at 345 nm)” value (shortened to “effect on assembling of microtubules”) [2] was “inactive”.
For `CC(=O)C1CCC2C3CC=C4CC(OS(=O)(=O)c5ccc(C)cc5)CCC4(C)C3CCC12C` (stereo not drawn) [PREG Tosylate], the “Index of Competition, Cytosol (Rat)” value (Cytosol (Rat)) was 107%, the “Index of Competition, MT (Beef)” value (MT (Beef)) was 121% and the “Index of Competition, MAP-2c + Tubuline” value (MAP-2c + Tubuline) was 129%.
With `CC(=O)C1[C@H](C)CC2C3CC=C4CC(O)CCC4(C)C3CCC21C` (stereo partly drawn) [PREG-16a-methyl] the “Index of Competition, Cytosol (Rat)” value (Cytosol (Rat)) was 80% and the “Index of Competition, MT (Beef)” value (MT (Beef)) was 88%.
With `[2H]OC1CCC2(C)C(=CCC3C2CCC2(C)C3CC(C)C2C(C)=O)C1` (stereo not drawn) [PREG-16β-methyl] the “Index of Competition, Cytosol (Rat)” value (Cytosol (Rat)) was 63%, the “Index of Competition, MT (Beef)” value (MT (Beef)) was 83 (beef) % and the “Index of Competition, MAP-2c + Tubuline” value (MAP-2c + Tubuline) was 97%.
`CC(=O)C1CCC2C3CC=C4CC(OS(=O)(=O)O)CCC4(C)C3CCC12C` (stereo not drawn) [Preqnenolone sulfate, pregnenolone sulfate] was tested, and the “competition for the binding of PREG” value [1] was “best competitors”, the “R.C.R. 50 (relative competition index)” value [1] was 78.8 ± 7.0 and the RCR (fetal microtubules) was 78.8. The RCR (MAP2-tubulin copolymers) was 91.5 and the “effect on assembling of microtubules” value [2] was “effects similar to those of progesterone”.
With `CC(=O)[C@H]1CC[C@H]2[C@@H]3CCC4=CC(=O)CC[C@]4(C)[C@H]3CC[C@]12C` [Progesterone] the “competition for the binding of PREG” value [1] was “best competitors”, the “R.C.R. 50 (relative competition index)” value [1] was 72.1 ± 17.7 and the RCR (fetal microtubules) was 72.1. The “binding to MAP2 (in words)” value (MAP2-tubulin copolymers) was “affinity for MAP2 of the same order as that of PREG”, the RCR (MAP2-tubulin copolymers) was 81.3 and the “effect on assembling of microtubules” value [2] was “without effect”. The “effect on PREG-stimulated assembly of microtubules” value ([2]; with PREG, each at 500 nM) was “counteracts the stimulative effect of PREG on the assembly of microtubules”.
Molecule `C[C@]12CC[C@H]3[C@@H](CCC4=CC(=O)CC[C@@]43C)[C@@H]1CC[C@@H]2O` [Testosterone, reference compound] has an RCR (fetal microtubules) of 5.6 and an RCR (MAP2-tubulin copolymers) of 2.3.
For `[2H]OC1CCC2(C)C(=CCC3C2CCC2(C)C3CCC2[C@H](C)O)C1` (stereo partly drawn) [Δ5-pregnene-3β.20α-diol, Δ5-pregnene-3β, 20α-diol], the “competition for the binding of PREG” value [1] was “best competitors”, the “R.C.R. 50 (relative competition index)” value [1] was 68.4 ± 15.3 and the “Index of Competition, Cytosol (Rat)” value (Cytosol (Rat)) was 87%. The “Index of Competition, MT (Beef)” value (MT (Beef)) was 100 (beef) %.
For Phospholipase A2 [reference compound], the “% of Control (binding of PREG [3H])” value ([3]; cytosol incubated with enzyme at 37° C. for 30 min, mean±standard error, n=3) was 85.0 ± 7.3% and the “effect on binding sites of PREG [3H] (in words)” value ([3]; enzyme treatment of cytosol) was “no significant effect”.
